Key:
human TLR2 = target: T1, human TLR2 (Homo sapiens, UniProt O60603); experiment: TLR ligand screening: NF-κB SEAP reporter in HEK293 cells expressing TLR2; assay type: cell-based; settings: one concentration: Guanosine 100 uM, NTR001 10 uM, Inosine 100 uM; HEK293; triplicate; FIG. 2
T1 construct: expressed in transfected cells; host or cells: HEK293
Description: (§1) Toll-Like Receptor (TLR) Ligand Screening: In-vitro Activity of the PNPi, Guanosine and Inosine on Seven Different Human TLRs (TLR2, 3, 4, 5, 7, 8 and 9) as a Potential Agonist.
(§2) Method: TLR stimulation is tested by assessing NF-KB activation in HEK293 cells expressing a given TLR. The Secreted Embryonic Alkaline Phosphatase (SEAP) reporter is under the control of a promoter inducible by the transcription factor NF-κB.
(§3) This reporter gene allows the monitoring of signaling through the TLR, based on the activation of NF-κB. The compounds are evaluated at one concentration and compared to control ligands. This step is performed in triplicate.

human TLR4 = target: T2, human TLR4 (Homo sapiens, UniProt O00206); experiment: TLR ligand screening: NF-κB SEAP reporter in HEK293 cells expressing TLR4; assay type: cell-based; settings: one concentration: Guanosine 100 uM, NTR001 10 uM, Inosine 100 uM; HEK293; triplicate; FIG. 2
T2 construct: expressed in transfected cells; host or cells: HEK293
T2 sequence (O00206 24-839): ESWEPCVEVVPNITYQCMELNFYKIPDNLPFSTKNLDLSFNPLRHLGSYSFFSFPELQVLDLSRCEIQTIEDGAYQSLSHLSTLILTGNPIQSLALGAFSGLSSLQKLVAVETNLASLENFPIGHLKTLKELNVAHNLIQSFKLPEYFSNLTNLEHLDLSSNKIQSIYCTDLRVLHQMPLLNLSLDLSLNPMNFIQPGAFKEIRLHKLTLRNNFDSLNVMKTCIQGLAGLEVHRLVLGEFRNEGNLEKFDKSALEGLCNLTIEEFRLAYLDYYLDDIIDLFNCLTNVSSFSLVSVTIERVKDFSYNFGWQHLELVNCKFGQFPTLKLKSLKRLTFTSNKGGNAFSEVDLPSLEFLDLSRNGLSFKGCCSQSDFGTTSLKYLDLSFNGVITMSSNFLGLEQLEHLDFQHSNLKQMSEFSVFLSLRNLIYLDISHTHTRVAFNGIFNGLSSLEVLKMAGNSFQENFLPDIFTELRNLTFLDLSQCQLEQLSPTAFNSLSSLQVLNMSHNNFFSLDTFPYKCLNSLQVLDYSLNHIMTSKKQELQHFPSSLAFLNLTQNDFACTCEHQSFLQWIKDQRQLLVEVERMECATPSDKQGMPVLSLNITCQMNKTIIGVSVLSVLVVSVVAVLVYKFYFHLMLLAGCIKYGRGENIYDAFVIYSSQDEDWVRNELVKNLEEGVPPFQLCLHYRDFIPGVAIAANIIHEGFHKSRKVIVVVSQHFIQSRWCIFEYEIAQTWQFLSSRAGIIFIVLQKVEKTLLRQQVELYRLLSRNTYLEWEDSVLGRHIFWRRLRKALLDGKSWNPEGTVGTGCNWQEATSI
T2 sequence (Q9Y6Y9 17-160 partner limits assumed): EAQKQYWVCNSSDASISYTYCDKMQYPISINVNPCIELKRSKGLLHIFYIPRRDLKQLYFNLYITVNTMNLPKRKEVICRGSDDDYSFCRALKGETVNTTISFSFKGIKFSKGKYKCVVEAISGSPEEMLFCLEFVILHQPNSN
Description: as §1, §2, §3

human TLR3 = target: T3, human TLR3 (Homo sapiens, UniProt O15455); experiment: TLR ligand screening: NF-κB SEAP reporter in HEK293 cells expressing TLR3; assay type: cell-based; settings: one concentration: NTR001 10 uM, Inosine 100 uM, triplicate, FIG. 2
T3 construct: expressed in transfected cells; host or cells: HEK293
T3 sequence (O15455 24-904): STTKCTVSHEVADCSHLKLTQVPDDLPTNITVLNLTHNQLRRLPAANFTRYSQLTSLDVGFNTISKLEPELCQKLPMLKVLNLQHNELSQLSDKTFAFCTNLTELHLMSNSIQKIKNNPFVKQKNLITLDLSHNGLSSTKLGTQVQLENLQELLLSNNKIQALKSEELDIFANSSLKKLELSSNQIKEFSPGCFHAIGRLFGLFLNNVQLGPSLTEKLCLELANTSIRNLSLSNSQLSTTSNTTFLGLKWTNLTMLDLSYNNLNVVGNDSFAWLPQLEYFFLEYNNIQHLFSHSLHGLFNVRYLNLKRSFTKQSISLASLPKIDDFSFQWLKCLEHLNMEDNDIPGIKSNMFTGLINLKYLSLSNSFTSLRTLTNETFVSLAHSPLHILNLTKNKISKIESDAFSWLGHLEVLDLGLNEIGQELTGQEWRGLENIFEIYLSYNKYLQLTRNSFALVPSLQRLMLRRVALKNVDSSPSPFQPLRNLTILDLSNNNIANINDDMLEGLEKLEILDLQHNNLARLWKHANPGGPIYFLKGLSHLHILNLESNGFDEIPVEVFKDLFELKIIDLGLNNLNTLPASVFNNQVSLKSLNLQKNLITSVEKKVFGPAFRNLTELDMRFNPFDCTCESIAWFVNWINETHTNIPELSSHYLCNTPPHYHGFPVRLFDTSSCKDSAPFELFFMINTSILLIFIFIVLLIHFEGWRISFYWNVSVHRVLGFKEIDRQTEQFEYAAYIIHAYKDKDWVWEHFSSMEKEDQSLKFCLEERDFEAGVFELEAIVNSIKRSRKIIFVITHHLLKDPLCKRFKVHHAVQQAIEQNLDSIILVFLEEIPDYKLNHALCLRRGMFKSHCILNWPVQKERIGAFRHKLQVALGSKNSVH
Description: as §1, §2, §3

human TLR5 = target: T4, human TLR5 (Homo sapiens, UniProt O60602); experiment: TLR ligand screening: NF-κB SEAP reporter in HEK293 cells expressing TLR5; assay type: cell-based; settings: one concentration: NTR001 10 uM, Inosine 100 uM, triplicate, FIG. 2
T4 construct: expressed in transfected cells; host or cells: HEK293
T4 sequence (O60602 21-858): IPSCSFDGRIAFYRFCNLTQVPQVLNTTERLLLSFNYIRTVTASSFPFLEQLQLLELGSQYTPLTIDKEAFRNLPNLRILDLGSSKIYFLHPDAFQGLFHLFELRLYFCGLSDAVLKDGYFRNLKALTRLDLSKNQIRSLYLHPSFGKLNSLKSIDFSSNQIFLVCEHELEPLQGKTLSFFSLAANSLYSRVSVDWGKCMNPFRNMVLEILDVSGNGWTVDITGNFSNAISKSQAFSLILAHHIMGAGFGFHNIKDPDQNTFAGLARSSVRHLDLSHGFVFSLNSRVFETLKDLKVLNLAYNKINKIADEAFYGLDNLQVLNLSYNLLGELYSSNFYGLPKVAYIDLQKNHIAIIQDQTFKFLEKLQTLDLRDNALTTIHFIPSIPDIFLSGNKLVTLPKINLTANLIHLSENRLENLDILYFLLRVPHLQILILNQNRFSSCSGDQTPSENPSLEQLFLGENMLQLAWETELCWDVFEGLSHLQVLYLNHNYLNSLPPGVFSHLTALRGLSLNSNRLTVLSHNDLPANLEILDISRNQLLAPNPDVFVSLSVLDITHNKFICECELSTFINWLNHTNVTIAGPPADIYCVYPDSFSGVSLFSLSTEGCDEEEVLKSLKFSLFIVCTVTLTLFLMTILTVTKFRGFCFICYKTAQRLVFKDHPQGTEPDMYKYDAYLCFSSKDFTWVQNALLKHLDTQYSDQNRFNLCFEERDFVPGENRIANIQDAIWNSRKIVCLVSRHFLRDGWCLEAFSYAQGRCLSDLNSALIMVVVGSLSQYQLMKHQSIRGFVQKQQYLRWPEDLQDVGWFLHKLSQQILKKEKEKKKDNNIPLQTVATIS
Description: as §1, §2, §3

human TLR9 = target: T5, human TLR9 (Homo sapiens, UniProt Q9NR96); experiment: TLR ligand screening: NF-κB SEAP reporter in HEK293 cells expressing TLR9; assay type: cell-based; settings: one concentration: NTR001 10 uM, Inosine 100 uM, triplicate, FIG. 2
T5 construct: expressed in transfected cells; host or cells: HEK293
T5 sequence (Q9NR96 26-1032): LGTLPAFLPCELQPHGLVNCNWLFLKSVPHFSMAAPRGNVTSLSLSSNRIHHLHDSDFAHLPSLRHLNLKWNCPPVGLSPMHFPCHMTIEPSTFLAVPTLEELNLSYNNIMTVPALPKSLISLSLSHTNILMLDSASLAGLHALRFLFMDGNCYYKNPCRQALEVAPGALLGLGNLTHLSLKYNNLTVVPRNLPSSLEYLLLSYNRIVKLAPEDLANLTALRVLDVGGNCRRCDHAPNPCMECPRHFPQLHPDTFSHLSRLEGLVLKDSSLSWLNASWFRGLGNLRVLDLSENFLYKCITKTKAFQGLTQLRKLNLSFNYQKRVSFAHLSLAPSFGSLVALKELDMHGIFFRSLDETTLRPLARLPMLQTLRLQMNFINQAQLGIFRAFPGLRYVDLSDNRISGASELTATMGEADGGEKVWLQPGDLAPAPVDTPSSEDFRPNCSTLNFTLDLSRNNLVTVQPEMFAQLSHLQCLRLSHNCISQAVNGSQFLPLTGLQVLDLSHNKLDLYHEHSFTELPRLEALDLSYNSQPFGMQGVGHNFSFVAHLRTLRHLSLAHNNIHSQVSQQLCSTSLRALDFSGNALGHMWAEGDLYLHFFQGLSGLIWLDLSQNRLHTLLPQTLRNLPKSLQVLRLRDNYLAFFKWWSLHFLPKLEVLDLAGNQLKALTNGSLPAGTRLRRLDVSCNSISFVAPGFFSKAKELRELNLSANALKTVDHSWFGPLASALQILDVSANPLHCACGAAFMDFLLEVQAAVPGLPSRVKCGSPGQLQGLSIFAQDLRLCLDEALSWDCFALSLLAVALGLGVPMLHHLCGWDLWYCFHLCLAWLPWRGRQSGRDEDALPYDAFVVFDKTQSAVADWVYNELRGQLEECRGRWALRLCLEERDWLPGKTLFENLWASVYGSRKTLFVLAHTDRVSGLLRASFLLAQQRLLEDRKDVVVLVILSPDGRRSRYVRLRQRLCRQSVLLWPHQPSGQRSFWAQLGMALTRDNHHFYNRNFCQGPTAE
Description: as §1, §2, §3

B16 tumors = settings: NTR001 60 mg/kg PO; CTLA4-Ab 100, 50, 50 ug IP; days 0, 3 and 6; FIG. 11
[1] = test system: L. monocytogenes (ATCC Strain35152, hemolytic substrain); settings: 30 mg/kg PO or IP, or 2 mg/kg drinking water; 1×10^6 CFU i.v.; FIGS. 7 and 9

T1 sequence (O60603 21-784): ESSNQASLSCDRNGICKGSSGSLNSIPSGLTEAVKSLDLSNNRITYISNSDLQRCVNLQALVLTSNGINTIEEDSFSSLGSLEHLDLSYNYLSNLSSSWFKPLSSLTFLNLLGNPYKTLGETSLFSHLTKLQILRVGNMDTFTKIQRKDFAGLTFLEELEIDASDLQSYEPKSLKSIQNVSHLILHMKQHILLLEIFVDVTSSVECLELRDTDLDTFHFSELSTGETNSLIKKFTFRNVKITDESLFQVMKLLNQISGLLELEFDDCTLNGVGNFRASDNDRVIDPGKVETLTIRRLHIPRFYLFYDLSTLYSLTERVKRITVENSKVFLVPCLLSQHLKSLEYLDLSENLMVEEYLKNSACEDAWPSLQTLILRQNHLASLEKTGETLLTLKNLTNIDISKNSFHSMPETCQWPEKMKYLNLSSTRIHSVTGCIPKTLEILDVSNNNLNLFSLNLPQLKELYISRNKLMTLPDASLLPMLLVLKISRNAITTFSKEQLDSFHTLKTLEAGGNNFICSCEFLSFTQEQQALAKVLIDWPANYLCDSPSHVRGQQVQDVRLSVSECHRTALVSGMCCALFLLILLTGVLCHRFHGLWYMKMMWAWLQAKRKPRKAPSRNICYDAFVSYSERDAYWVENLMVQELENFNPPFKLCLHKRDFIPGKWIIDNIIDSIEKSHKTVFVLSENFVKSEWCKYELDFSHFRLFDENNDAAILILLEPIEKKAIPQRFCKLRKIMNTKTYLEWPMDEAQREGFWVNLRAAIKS

| Structure (SMILES) | stimulatory effect on human TLR2 (NF-κB activation) (human TLR2) | stimulatory effect on human TLR4 (NF-κB activation) (human TLR4) | stimulatory effect on human TLR3 (NF-κB activation) (human TLR3) | stimulatory effect on human TLR5 (NF-κB activation) (human TLR5) | stimulatory effect on human TLR9 (NF-κB activation) (human TLR9) | tumor volume (B16 tumors) | weight loss [1] |
| --- | --- | --- | --- | --- | --- | --- | --- |
| OC[C@H]1O[C@@H](n2cnc3c(O)ncnc32)[C@H](O)[C@@H]1O [Inosine, inosine] | do not exhibit a stimulatory effect | do not exhibit a stimulatory effect | do not exhibit a stimulatory effect | do not exhibit a stimulatory effect | do not exhibit a stimulatory effect |  |  |
| O=c1[nH]cnc2c([C@@H]3N[C@H](CO)[C@@H](O)[C@H]3O)c[nH]c12 [NTR001, 7-[(2S,3S,4R,5R)-3,4-dihydroxy-5-(hydroxymethyl)-2-pyrrolidinyl]-1,5-dihyro-4-H-pyrrolo-[3,2-d]pyrimidin-4-one] | do not exhibit a stimulatory effect | do not exhibit a stimulatory effect | do not exhibit a stimulatory effect | do not exhibit a stimulatory effect | do not exhibit a stimulatory effect | decrease in tumor volume but was not statistically significant | significant decrease |

From patent US20170209447A1, “Use of PNP Inhibitor to Treat Relapse of Malignancy after Hematopoietic Stem Cell Transplant” (Nitor Therapeutics, priority 2014, published 2017)
